Read-outs that look alike come from different tables or passages of the source.
Target: P. falciparum apicoplast DNA polymerase (Pf-apPOL) (Plasmodium falciparum, UniProt Q8ILY1)
Assay: Fluorescence-based high-throughput DNA polymerase assay (molecular beacon), primary screen and dose-response;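 for % inhibition ApPOL 90': test concentration in µM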;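 for % inhibition Apol 40': compound concentration given in µM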;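 for % inhibition apPOL 180': test concentration in µM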
Assay type: biochemical
Conditions: for DNA Pol: 90 min, 10 µM
In short: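 Single-point screening used 10 µM compound with 20 nM polymerase, 20 nM hairpin substrate and 6 µM dNTPs for 90 min at 25 °C. Confirmatory titrations (2.5–80 µM) followed fluorescence at three times, and IC50 was derived from a fit including a cooperativity term n.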

[1] = 'DNA Pol' of the 186 hits list (primary screen value)

P. falciparum apicoplast DNA polymerase (Pf-apPOL), sequence (Q8ILY1 entry or part of it): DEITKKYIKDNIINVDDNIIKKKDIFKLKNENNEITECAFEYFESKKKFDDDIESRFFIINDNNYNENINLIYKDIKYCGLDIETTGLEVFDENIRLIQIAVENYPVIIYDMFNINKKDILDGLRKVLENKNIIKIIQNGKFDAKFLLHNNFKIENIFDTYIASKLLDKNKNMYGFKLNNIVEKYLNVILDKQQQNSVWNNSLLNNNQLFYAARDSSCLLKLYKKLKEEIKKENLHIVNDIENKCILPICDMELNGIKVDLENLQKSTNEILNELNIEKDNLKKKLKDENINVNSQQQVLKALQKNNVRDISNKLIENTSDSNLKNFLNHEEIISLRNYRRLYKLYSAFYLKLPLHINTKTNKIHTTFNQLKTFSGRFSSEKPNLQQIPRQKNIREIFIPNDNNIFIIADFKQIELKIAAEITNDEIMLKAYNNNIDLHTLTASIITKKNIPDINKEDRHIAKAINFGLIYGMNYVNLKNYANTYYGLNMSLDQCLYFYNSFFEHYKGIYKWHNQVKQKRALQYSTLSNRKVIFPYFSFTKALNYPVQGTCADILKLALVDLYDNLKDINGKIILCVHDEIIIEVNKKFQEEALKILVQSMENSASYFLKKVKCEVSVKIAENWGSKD

Compound: OC(C#Cc1ccccc1)c1ccco1 (stereo not drawn) [Molecule 95]
- IC50 (read-out: IC50 Pf-apPOL, Table 2): 7.4 ± 0.4 µM
- IC50 (supplemental file 2, sheet IC50 nontoxic compounds, Pf-apPOL): 7.4 µM

Compound: Cc1ccccc1C(=O)N1CCc2c(nc3cc(-c4ccccc4)[nH]n3c2=O)C1 [Molecule 41, Cc1ccccc1C(=O)N1CCc2c(C1)nc1n(c2=O)[nH]c(c1)c1ccccc1]
- DNA Pol [1]: 47
- DNA Pol (DNA Pol (primary screen value)): 47
- % inhibition Apo pol 10' (DRC-1, concentration 2.5): 6.184%
- % inhibition Apo pol 10' (DRC-1, concentration 5): 10.1754%
- % inhibition Apo pol 10' (DRC-1, concentration 10): 45.445%
- % inhibition Apo pol 10' (DRC-1, concentration 20): 74.5975%
- % inhibition Apo pol 10' (DRC-1, concentration 40): 80.8347%
- % inhibition Apo pol 10' (DRC-1, concentration 80): 67.5135%
- % inhibition Apol 90' (DRC-1, concentration 2.5): 1.828%
- % inhibition Apol 90' (DRC-1, concentration 5): 3.445%
- % inhibition Apol 90' (DRC-1, concentration 10): 31.8176%
- % inhibition Apol 90' (DRC-1, concentration 20): 59.5671%
- % inhibition Apol 90' (DRC-1, concentration 40): 74.5448%
- % inhibition Apol 90' (DRC-1, concentration 80): 71.589%
- % inhibition apPOL 180' (DRC-1, concentration 2.5): -1.511%
- % inhibition apPOL 180' (DRC-1, concentration 5): -3.248%
- % inhibition apPOL 180' (DRC-1, concentration 10): 20.9007%
- % inhibition apPOL 180' (DRC-1, concentration 20): 43.9765%
- % inhibition apPOL 180' (DRC-1, concentration 40): 64.8377%
- % inhibition apPOL 180' (DRC-1, concentration 80): 65.5415%
- % inhibition Apo pol 5' (DRC-2, concentration 2.5): 7%
- % inhibition Apo pol 5' (DRC-2, concentration 5): 8%
- % inhibition Apo pol 5' (DRC-2, concentration 10): 20%
- % inhibition Apo pol 5' (DRC-2, concentration 20): 17%
- % inhibition Apo pol 5' (DRC-2, concentration 40): 46%
- % inhibition Apo pol 5' (DRC-2, concentration 80): 29%
- % inhibition Apol 40' (DRC-2, concentration 2.5): 9%
- % inhibition Apol 40' (DRC-2, concentration 5): 5.58%
- % inhibition Apol 40' (DRC-2, concentration 10): 22%
- % inhibition Apol 40' (DRC-2, concentration 20): 18%
- % inhibition Apol 40' (DRC-2, concentration 40): 61%
- % inhibition Apol 40' (DRC-2, concentration 80): 54%
- % inhibition ApPOL 90' (DRC-2, concentration 2.5): 8%
- % inhibition ApPOL 90' (DRC-2, concentration 5): 5%
- % inhibition ApPOL 90' (DRC-2, concentration 10): 21%
- % inhibition ApPOL 90' (DRC-2, concentration 20): 17%
- % inhibition ApPOL 90' (DRC-2, concentration 40): 61%
- % inhibition ApPOL 90' (DRC-2, concentration 80): 59%
- % inhibition apPOL 180' (DRC-2, concentration 2.5): 4.5%
- % inhibition apPOL 180' (DRC-2, concentration 5): 1.21%
- % inhibition apPOL 180' (DRC-2, concentration 10): 16%
- % inhibition apPOL 180' (DRC-2, concentration 20): 9%
- % inhibition apPOL 180' (DRC-2, concentration 40): 55%
- % inhibition apPOL 180' (DRC-2, concentration 80): 58%

Compound: O=C1CCCC2=C1C(c1ccccn1)C1=C(CCCC1=O)O2 [KU0194228]
- DNA Pol [1]: 11
- DNA Pol (DNA Pol (primary screen value)): 11
- % inhibition Apo pol 10' (DRC-1, concentration 2.5): 1.279%
- % inhibition Apo pol 10' (DRC-1, concentration 5): 9.9789%
- % inhibition Apo pol 10' (DRC-1, concentration 10): 33.5344%
- % inhibition Apo pol 10' (DRC-1, concentration 20): 43.7332%
- % inhibition Apo pol 10' (DRC-1, concentration 40): 62.1087%
- % inhibition Apo pol 10' (DRC-1, concentration 80): 77.9707%
- % inhibition Apol 90' (DRC-1, concentration 2.5): 2.669%
- % inhibition Apol 90' (DRC-1, concentration 5): 9.934%
- % inhibition Apol 90' (DRC-1, concentration 10): 28.061%
- % inhibition Apol 90' (DRC-1, concentration 20): 43.923%
- % inhibition Apol 90' (DRC-1, concentration 40): 56.4118%
- % inhibition Apol 90' (DRC-1, concentration 80): 74.3626%
- % inhibition apPOL 180' (DRC-1, concentration 2.5): 5.61%
- % inhibition apPOL 180' (DRC-1, concentration 5): 16.0813%
- % inhibition apPOL 180' (DRC-1, concentration 10): 29.7893%
- % inhibition apPOL 180' (DRC-1, concentration 20): 44.3828%
- % inhibition apPOL 180' (DRC-1, concentration 40): 53.3605%
- % inhibition apPOL 180' (DRC-1, concentration 80): 68.1872%
- % inhibition Apo pol 5' (DRC-2, concentration 2.5): 5%
- % inhibition Apo pol 5' (DRC-2, concentration 5): 4%
- % inhibition Apo pol 5' (DRC-2, concentration 10): 22%
- % inhibition Apo pol 5' (DRC-2, concentration 20): 33%
- % inhibition Apo pol 5' (DRC-2, concentration 40): 44%
- % inhibition Apo pol 5' (DRC-2, concentration 80): 43%
- % inhibition Apol 40' (DRC-2, concentration 2.5): 2.6%
- % inhibition Apol 40' (DRC-2, concentration 5): -9%
- % inhibition Apol 40' (DRC-2, concentration 10): 15%
- % inhibition Apol 40' (DRC-2, concentration 20): 33%
- % inhibition Apol 40' (DRC-2, concentration 40): 46%
- % inhibition Apol 40' (DRC-2, concentration 80): 52%
- % inhibition ApPOL 90' (DRC-2, concentration 2.5): 2%
- % inhibition ApPOL 90' (DRC-2, concentration 5): -14%
- % inhibition ApPOL 90' (DRC-2, concentration 10): 18%
- % inhibition ApPOL 90' (DRC-2, concentration 20): 37%
- % inhibition ApPOL 90' (DRC-2, concentration 40): 49%
- % inhibition ApPOL 90' (DRC-2, concentration 80): 58%
- % inhibition apPOL 180' (DRC-2, concentration 2.5): -0.328%
- % inhibition apPOL 180' (DRC-2, concentration 5): -74%
- % inhibition apPOL 180' (DRC-2, concentration 10): 22%
- % inhibition apPOL 180' (DRC-2, concentration 20): 41%
- % inhibition apPOL 180' (DRC-2, concentration 40): 48%
- % inhibition apPOL 180' (DRC-2, concentration 80): 60%

Reference: publication PMC9090415, “Discovery of small molecule inhibitors of Plasmodium falciparum apicoplast DNA polymerase” (Journal of Enzyme Inhibition and Medicinal Chemistry, 2022)
